Assay results reported in ChEMBL document CHEMBL1201862, “PubChem BioAssay data set” (2004).
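Each compound was tested at five concentrations against cells in 96-well plates for 48 hours. The concentration for 50% growth inhibition is given as GI50.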 Calls of active or inactive are those of the source. Cut-off read from the data, not from the text of the source: active = GI50 up to about 1.1 µM and inactive = higher.

Key:
Experiment in all cases: DTP human tumour cell line panel, 48 h
MDA-MB-231 = test system: MDA-MB-231
HCC 2998 = test system: HCC 2998
SK-MEL-2 = test system: SK-MEL-2
K562 = test system: K562
MDA-N = test system: MDA-N
786-0 = test system: 786-0
SW-620 = test system: SW-620
MCF7 = test system: MCF7
MOLT-4 = test system: MOLT-4
LOX IMVI = test system: LOX IMVI
T47D = test system: T47D
SNB-19 = test system: SNB-19
MDA-MB-435 = test system: MDA-MB-435
HOP-62 = test system: HOP-62
IGROV-1 = test system: IGROV-1
UO-31 = test system: UO-31
A549 = test system: A549
DU-145 = test system: DU-145
OVCAR-4 = test system: OVCAR-4
Malme-3M = test system: Malme-3M
SK-MEL-28 = test system: SK-MEL-28
SF-268 = test system: SF-268
SK-MEL-5 = test system: SK-MEL-5
NCI-H522 = test system: NCI-H522
HOP-92 = test system: HOP-92
SNB-75 = test system: SNB-75
U-251 = test system: U-251
HCT-15 = test system: HCT-15
HL-60 = test system: HL-60
ACHN = test system: ACHN
SN12C = test system: SN12C
KM12 = test system: KM12
UACC-62 = test system: UACC-62
RPMI-8226 = test system: RPMI-8226
PC-3 = test system: PC-3
CAKI-1 = test system: CAKI-1
COLO 205 = test system: COLO 205
A498 = test system: A498
NCI-H460 = test system: NCI-H460
SF-295 = test system: SF-295
OVCAR-5 = test system: OVCAR-5
OVCAR-3 = test system: OVCAR-3
NCI-H23 = test system: NCI-H23
SK-OV-3 = test system: SK-OV-3
SF-539 = test system: SF-539
EKVX = test system: EKVX
SR = test system: SR
TK-10 = test system: TK-10
RXF 393 = test system: RXF 393
UACC-257 = test system: UACC-257
M14 = test system: M14
HCT-116 = test system: HCT-116
Hs-578T = test system: Hs-578T
HT-29 = test system: HT-29
CCRF-CEM = test system: CCRF-CEM
NCI/ADR-RES = test system: NCI/ADR-RES
NCI-H226 = test system: NCI-H226
OVCAR-8 = test system: OVCAR-8

CCOc1ccccc1-c1nc2c(s1)C(=O)c1ccccc1C2=O
GI50 (MDA-MB-231): 2.84 µM (inactive)
GI50 (HCC 2998): 14.5 µM (inactive)
GI50 (SK-MEL-2): 15.7 µM (inactive)
GI50 (K562): 4.61 µM (inactive)
GI50 (MDA-N): 2.72 µM (inactive)
GI50 (786-0): 16.9 µM (inactive)
GI50 (SW-620): 8 µM (inactive)
GI50 (MCF7): 12.2 µM (inactive)
GI50 (MOLT-4): 3.53 µM (inactive)
GI50 (LOX IMVI): 4.37 µM (inactive)
GI50 (T47D): 16.9 µM (inactive)
GI50 (SNB-19): 25.8 µM (inactive)
GI50 (MDA-MB-435): 2.15 µM (inactive)
GI50 (HOP-62): 15.4 µM (inactive)
GI50 (IGROV-1): 12.2 µM (inactive)
GI50 (UO-31): 12.6 µM (inactive)
GI50 (A549): 17.1 µM (inactive)
GI50 (DU-145): 19.4 µM (inactive)
GI50 (OVCAR-4): 9.68 µM (inactive)
GI50 (Malme-3M): 3.68 µM (inactive)
GI50 (SK-MEL-28): 16.7 µM (inactive)
GI50 (SF-268): 12.6 µM (inactive)
GI50 (SK-MEL-5): 5.12 µM (inactive)
GI50 (NCI-H522): 11.8 µM (inactive)
GI50 (HOP-92): 12 µM (inactive)
GI50 (SNB-75): 11.4 µM (inactive)
GI50 (U-251): 14.6 µM (inactive)
GI50 (HCT-15): 25.7 µM
GI50 (HL-60): 1.92 µM (inactive)
GI50 (ACHN): 14.9 µM (inactive)
GI50 (SN12C): 18.4 µM (inactive)
GI50 (KM12): 15.4 µM (inactive)
GI50 (UACC-62): 3.78 µM (inactive)
GI50 (RPMI-8226): 7.26 µM (inactive)
GI50 (PC-3): 12 µM (inactive)
GI50 (CAKI-1): 12.2 µM (inactive)
GI50 (COLO 205): 24.7 µM (inactive)
GI50 (A498): 15.9 µM (inactive)
GI50 (NCI-H460): 18.7 µM (inactive)
GI50 (SF-295): 12.6 µM (inactive)
GI50 (OVCAR-5): 19.7 µM (inactive)
GI50 (OVCAR-3): 2.25 µM (inactive)
GI50 (NCI-H23): 10.5 µM (inactive)
GI50 (SK-OV-3): 15 µM (inactive)
GI50 (SF-539): 16.4 µM (inactive)
GI50 (EKVX): 17.2 µM (inactive)
GI50 (SR): 6.24 µM (inactive)
GI50 (TK-10): 19.3 µM (inactive)
GI50 (RXF 393): 16 µM (inactive)
GI50 (UACC-257): 12.9 µM (inactive)
GI50 (M14): 15.7 µM (inactive)
GI50 (HCT-116): 15.2 µM (inactive)
GI50 (Hs-578T): 19 µM (inactive)

CC[C@@H](CCCCC1CC[C@H]2CC(=O)C[C@@H]12)OC (stereo partly drawn)
GI50 (K562): 33.7 µM (inactive)
GI50 (MDA-N): > 100 µM (inactive)
GI50 (MDA-MB-435): > 100 µM (inactive)
GI50 (HOP-62): > 100 µM (inactive)
GI50 (OVCAR-4): > 100 µM (inactive)
GI50 (Malme-3M): > 100 µM (inactive)
GI50 (HL-60): 36 µM (inactive)
GI50 (KM12): > 100 µM (inactive)
GI50 (UACC-62): > 100 µM (inactive)
GI50 (RPMI-8226): > 100 µM (inactive)
GI50 (PC-3): > 100 µM (inactive)
GI50 (EKVX): > 100 µM (inactive)
GI50 (SR): > 100 µM (inactive)
GI50 (M14): > 100 µM (inactive)
GI50 (Hs-578T): > 100 µM (inactive)

O=C1/C(=C/c2ccco2)NC(=S)N1CN1CCCCC1
GI50 (MDA-MB-231): > 100 µM (inactive)
GI50 (SK-MEL-2): > 100 µM (inactive)
GI50 (K562): 60.1 µM (inactive)
GI50 (MDA-N): > 100 µM (inactive)
GI50 (786-0): 70.1 µM (inactive)
GI50 (HT-29): 25.8 µM (inactive)
GI50 (SW-620): 38.5 µM (inactive)
GI50 (MCF7): 36.3 µM (inactive)
GI50 (MOLT-4): > 100 µM (inactive)
GI50 (LOX IMVI): 33.7 µM (inactive)
GI50 (SNB-19): 22.6 µM (inactive)
GI50 (MDA-MB-435): > 100 µM (inactive)
GI50 (HOP-62): > 100 µM (inactive)
GI50 (IGROV-1): 81.3 µM (inactive)
GI50 (UO-31): 26.9 µM (inactive)
GI50 (A549): > 100 µM (inactive)
GI50 (DU-145): > 100 µM (inactive)
GI50 (CCRF-CEM): 21.8 µM (inactive)
GI50 (OVCAR-4): 13.3 µM (inactive)
GI50 (Malme-3M): 85.5 µM (inactive)
GI50 (SK-MEL-28): > 100 µM (inactive)
GI50 (SF-268): 68.4 µM (inactive)
GI50 (SK-MEL-5): 57.8 µM (inactive)
GI50 (NCI-H522): > 100 µM (inactive)
GI50 (NCI/ADR-RES): 10.5 µM (inactive)
GI50 (HOP-92): > 100 µM (inactive)
GI50 (SNB-75): 58.5 µM (inactive)
GI50 (NCI-H226): 54.1 µM (inactive)
GI50 (U-251): > 100 µM (inactive)
GI50 (HCT-15): 28.6 µM
GI50 (ACHN): 34 µM (inactive)
GI50 (SN12C): > 100 µM (inactive)
GI50 (KM12): > 100 µM (inactive)
GI50 (UACC-62): 57.9 µM (inactive)
GI50 (RPMI-8226): 28.8 µM (inactive)
GI50 (PC-3): > 100 µM (inactive)
GI50 (COLO 205): 51.4 µM (inactive)
GI50 (A498): > 100 µM (inactive)
GI50 (SF-295): > 100 µM (inactive)
GI50 (OVCAR-5): > 100 µM (inactive)
GI50 (OVCAR-3): > 100 µM (inactive)
GI50 (NCI-H23): > 100 µM (inactive)
GI50 (SK-OV-3): > 100 µM (inactive)
GI50 (EKVX): 98.4 µM (inactive)
GI50 (SR): 34.5 µM (inactive)
GI50 (TK-10): > 100 µM (inactive)
GI50 (OVCAR-8): 43.7 µM (inactive)
GI50 (M14): 99.3 µM (inactive)
GI50 (HCT-116): 57.4 µM (inactive)
GI50 (Hs-578T): 83.6 µM (inactive)
